“And” between values parts separate entries of the source, which are not always exact repeats. Equal values may be shown once. Read-outs that look alike come from different tables or passages of the source. Marks after values point to notes of the source that are not given here.
Columns and labels:
[1] = test system: E. faecalis biofilms; assay: Minimum biofilm eradication concentration (MBEC), regrowth assay; format: cell-based, Enterococcus faecalis
Excerpt: (§1) A regrowth assay was used to establish the MBEC of a compound to evaluate the antibiofilm activity. See also H. Ceri, M. Olson, D. Morck, D. Storey, R. Read, A. Buret, B. Olson, Methods Enzymol. 2001, 337, 377.
(§2) Encouraged by the potency of the QACs against planktonic bacterial cells, the inventors then evaluated the efficacy of compound (12,2,12) against Staphylococcus aureus and Enterococcus faecalis biofilms. […] To both accurately evaluate the antibiofilm activity, a regrowth assay was utilized to establish the minimum biofilm eradication concentration (MBEC) of each compound.
(§3) Different biological assays were performed. For all biological assays, laboratory strains of methicillin-susceptible Staphylococcus aureus MSSA (SH1000), Enterococcus faecalis (OG1RF), Escherichia coli (MC4100), Pseudomonas aeruginosa (PAO1), community-acquired methicillin-resistant Staphylococcus aureus CA-MRSA (USA300-0114), and hospital-acquired methicillin-resistant Staphylococcus aureus HA-MRSA (ATCC 33591) were grown at 37° C. overnight from freezer stocks in 10 mL of the media indicated for each assay. All cultures, with the exception of E. faecalis, were grown with shaking at 250 rpm.
(§4) Minimum biofilm eradication concentration (MBEC) was also measured. To each well of a flat-bottomed 96-well plate (Corning 3370), 8 μL of overnight bacterial culture was brought to a volume of 200 μL with fresh media (BHI for S. aureus and MRSA, Todd Hewitt (TH) for E. faecalis). Plates were incubated statically for 24 hours at 37° C. to establish biofilms. After 24 hours, the wells were carefully emptied by inverting the plate and gently shaking. A pre-mixed solution of media and aqueous compound stock solution was added to each well and plates were incubated at 37° C. 16 hours after pre-established biofilms were treated with compound, the media from each well was removed, biofilms were washed three times with 200 μL PBS to remove planktonic cells, and biofilms were incubated overnight at 37° C. in 200 μL of fresh media to allow any viable cells to continue growing. The wells were then vigorously pipetted to resuspend the biofilm cells and the OD at 595 nm was measured using a plate reader (POLARstar Omega, BMG Labtech). Biofilms reaching a final OD of less than 0.1 were considered eradicated and the lowest concentration of antibiotic corresponded to the MBEC. Four replicates were completed for each concentration of compound as well as positive and negative controls.

[2] = test system: CA-MRSA (USA300-0114); assay: Minimum inhibitory concentration (MIC), broth microdilution; format: cell-based, Staphylococcus aureus
Experimental: (§5) Different biological assays were performed. […] All cultures, with the exception of E. faecalis, were grown with shaking at 250 rpm.
(§6) Minimum inhibitory concentration (MIC) values against bacteria were measured using standard method. Compounds were serially diluted two-fold from an aqueous stock solution to yield twelve test concentrations. Overnight S. aureus, E. faecalis, E. coli, P. aeruginosa, CA-MRSA, and HA-MRSA cultures diluted to ca. 10^6 cfu/mL in Mueller-Hinton media and 100 μL were inoculated into each well of a U-bottom 96-well plate (BD Biosciences, BD351177) containing 100 μL of compound solution. Plates were incubated statically at 37° C. for 72 hours upon which time wells were evaluated visually for bacterial growth. The MIC was determined as the lowest concentration of compound resulting in no bacterial growth visible to the naked eye, based on the majority of three independent experiments. Positive and negative aqueous and media controls were conducted for each trial.

[3] = test system: HA-MRSA (ATCC 33591); assay: as above; format: cell-based, Staphylococcus aureus
Experimental: as §5, §6

[4] = test system: S. aureus (MSSA, SH1000) biofilms; assay: Minimum biofilm eradication concentration (MBEC), regrowth assay; format: cell-based, Staphylococcus aureus; conditions: for MBEC MSSA: Table 5, SH1000
Excerpt: as §1, §2, §3, §4

[5] = test system: CA-MRSA (USA300-0114) biofilms; assay: as above; format: cell-based, Staphylococcus aureus; conditions: for MBEC CA-MRSA: Table 5, USA300-0114
Experimental: as §1, §3, §4

[6] = test system: red blood cells (defibrinated sheep blood); assay: Hemolysis assay (Lysis20); conditions: Table 4; concentration at which less than 20% of red blood cells are lysed
Experimental: Hemolysis assays (Lysis20) were performed according to the procedure detailed in Peng, L., DeSousa, J., Su, Z., Novak, B. M., Nevzorov, A. A., Garland, E. R., and Melander, C., Inhibition of Acinetobacter baumannii biofilm formation on a methacrylate polymer containing a 2-aminoimidazole subunit, Chem. Comm. 2011, 47, 4896-4898. Defibrinated sheep blood was purchased from Hemostat Labs (DSB 100). Compounds representative of each class were serially diluted in sterile PBS from aqueous stock solutions and incubated with resuspended blood cells. The OD of the final suspensions were measured directly using plate reader. TritonX (1% by volume) served as a positive control (100% lysis marker) and sterile PBS served as a negative control (0% lysis marker).
Lysis20 indicates the concentration of compound (in μM) at which less than 20% of red blood cells are lysed.

[7] = test system: Enterococcus faecalis (OG1RF); assay: Minimum inhibitory concentration (MIC), broth microdilution; format: cell-based; conditions: for MIC: read-out: MIC E. faecalis
Experimental: (§7) The term “minimum inhibitory concentration (MIC)” means the lowest concentration of an antimicrobial agent that will inhibit the visible growth of a microorganism after overnight incubation. MIC values against bacteria, for example, the Gram-positive Staphylococcus aureus and Enterococcus faecalis and the Gram-negative Escherichia coli and Pseudomonas aeruginosa were determined by standard methods.
(§8) With nearly three-dozen amphiphiles varying in structure and cationic nature synthesized, minimum inhibitory concentration (MIC) values against the Gram-positive Staphylococcus aureus and Enterococcus faecalis and the Gram-negative Escherichia coli and Pseudomonas aeruginosa were determined by standard methods. […] The commercially available antibacterial agent benzalkonium chloride (benzyldimethyldodecylammonium chloride, Bn,12) was tested for comparison. The broth microdilution for determining MIC values was performed as previously reported.
as §5, §6

[8] = test system: Pseudomonas aeruginosa (PAO1); assay: as above; format: cell-based; conditions: for MIC: read-out: MIC P. aeruginosa
Experimental: as §7, §8, §5, §6

[9] = test system: Escherichia coli (MC4100); assay: as above; format: cell-based; conditions: for MIC: read-out: MIC E. coli
Experimental: as §7, §8, §5, §6

[10] = test system: Staphylococcus aureus MSSA (SH1000); assay: as above; format: cell-based
Experimental: as §7, §8, §5, §6

[11] = Table 2, pre-established biofilm, ± values varied between 50 and 100 μM for the six trials
[12] = Table 4, USA300-0114, read-out: MIC CA-MRSA
[13] = Table 4, ATCC 33591, read-out: MIC HA-MRSA
[14] = Table 1, read-out: MIC S. aureus
[15] = Table 3, read-out: MIC S. aureus
[16] = Table 4, SH1000, read-out: MIC MSSA
[17] = table for compound (12,3,11-SH,3,12)

| Structure (SMILES) | MBEC E. faecalis [1, 11] | MBEC E. faecalis ([1]; Table 5) | MIC [2, 12] | MIC [3, 13] | MBEC S. aureus [4, 11] | MBEC MSSA [4] | MBEC CA-MRSA [5] | Lysis20 [6] | MIC ([7]; Table 1) | MIC ([7]; Table 3) | MIC ([8]; Table 1) | MIC ([8]; Table 3) | MIC ([9]; Table 1) | MIC ([9]; Table 3) | MIC [10, 14] | MIC [10, 15] | MIC [10, 16] | other results |
| --- | --- | --- | --- | --- | --- | --- | --- | --- | --- | --- | --- | --- | --- | --- | --- | --- | --- | --- |
| CCCCCCCCCCCC[N+](C)(C)CCN(C)CC[N+](C)(C)CCCCCCCCCCCC.[Br-].[Br-] [12,2,0,2,12] | 100 µM | 100 µM | 1 µM | 0.5 µM | 75 ± 25^a μM | 75 ± 25 µM | 100 µM | 8 µM | 2 µM | 1 µM | 4 µM | 4 µM | 1 µM | 2 µM | 1 µM | 1 µM | 1 µM | – |
| CCCCCCCCCCCC[N+](C)(C)CC[N+](C)(C)CC[N+](C)(C)CCCCCCCCCCCC.[Br-].[Br-].[I-] [12,2,1,2,12] | 25 µM | >200 µM | 1 µM | 1 µM | 50 µM | 200 µM | ≥200 µM | 16 µM | ≤0.25 µM | – | 1 µM | – | 0.5 µM | – | ≤0.25 µM | – | 1 µM | MIC E. faecalis ([7]; Table 3): ≤0.25-4^a μM; MIC P. aeruginosa ([8]; Table 3): 1-8^a μM; MIC E. coli ([9]; Table 3): 0.5-4^a μM; MIC S. aureus ([10]; Table 3): ≤0.25-4^a μM |
| C=CC[N+](C)(CC[N+](C)(C)CCCCCCCCCCCC)CC[N+](C)(C)CCCCCCCCCCCC.[Br-].[Br-].[Br-] [12,2,3A,2,12] | – | 75 ± 25 µM | 1 µM | 1 µM | – | 50 µM | 100 µM | 2 µM | – | 2 µM | – | 4 µM | – | 2 µM | – | 2 µM | 2 µM | – |
| CCCCCCCCCCCC[N+](C)(C)CC[N+](C)(C)CCCCCCCCCCCC [12,2,12] | 75 μM and 75 ± 25^a μM | 50 µM | 0.5 µM | 0.5 µM | 75 μM and 75 ± 25^a μM | 75 ± 25 µM | 200 µM | 8 µM | 1 µM | – | 4 µM | – | 2 µM | – | 1 µM | – | 1 µM | – |
| C=CC[N+](C)(CCC[N+](C)(C)CCCCCCCCCCCC)CCC[N+](C)(C)CCCCCCCCCCCC.[Br-].[Br-].[Br-] [12,3,3A,3,12] | – | 75 ± 25 µM | 1 µM | 1 µM | – | 50 µM | 100 µM | 8 µM | – | 2 µM | – | 4 µM | – | 2 µM | – | 1 µM | 1 µM | – |
| CCCCCCCCCCCC[N+](C)(C)CCC[N+](C)(CCCC)CCC[N+](C)(C)CCCCCCCCCCCC.[Br-].[Br-].[Br-] [12,3,4,3,12] | – | 50 µM | 0.5 µM | 0.5 µM | – | 75 ± 25 µM | 75 ± 25 µM | 8 µM | – | 1 µM | – | 2 µM | – | 1 µM | – | 1 µM | 1 µM | – |
| CCCCCCCCCCCC[N+](C)(C)CC[CH-][N+](C)(CCCCCCCCCCCS)CCC[N+](C)(C)CCCCCCCCCCCC (stereo not drawn) [12,3,11-SH,3,12] | – | >200 µM | – | – | – | 200 µM | >200 µM | 16 µM | – | – | – | – | – | – | – | – | – | MBEC E. faecalis [1, 17]: >200 µM; MIC ([2]; Staphylococcus aureus, Table 4, USA300-0114, read-out: MIC CA-MRSA): 2 µM; MIC ([2]; Staphylococcus aureus, table for compound (12,3,11-SH,3,12), read-out: MIC USA300-0114): 2 µM; MIC ([3]; Staphylococcus aureus, Table 4, ATCC 33591, read-out: MIC HA-MRSA): 2 µM; MIC ([3]; Staphylococcus aureus, table for compound (12,3,11-SH,3,12), read-out: MIC ATCC 33591): 2 µM; MBEC S. aureus [4, 17]: 200 µM; MBEC USA300-0114 [5, 17]: >200 µM; MIC ([7]; Enterococcus faecalis, table for compound (12,3,11-SH,3,12)): 2 µM; MIC ([8]; Pseudomonas aeruginosa, PAO1, table for compound (12,3,11-SH,3,12)): 8 µM; MIC ([9]; Escherichia coli, table for compound (12,3,11-SH,3,12)): 2 µM; MIC ([10]; Staphylococcus aureus, MSSA, Table 4, SH1000, read-out: MIC MSSA): 2 µM; MIC ([10]; Staphylococcus aureus, MSSA, table for compound (12,3,11-SH,3,12), read-out: MIC S. aureus): 2 µM |

— patent US10398142B2, “Polycationic amphiphiles as antimicrobial agents” (priority 2013, dated 2019)
